Reference: patent US20230390409A1, “FAP-ACTIVATED SERUM EXTENDED HALF-LIFE THERAPEUTIC CONJUGATES” (Avacta Life Sciences Limited, priority 2020, published 2023)

Experiments:
mouse tumor model = experiment: EC50 / maximum tolerated dose studies, mice; assay type: in vivo
Description: (§1) Half-maximal effective concentration (EC50) studies were undertaken to examine the difference between mice and rats administered talabostat alone (FIG. 4A) and mice and rats administered the therapeutic conjugates comprising talabostat (FIG. 4B). When talabostat is administered alone, the talabostat maximum tolerated dose (MTD) is about 3 mg/m^2 in a mouse tumor model and 0.18 mg/m^2 in rats. That is, the talabostat MTD is 1/17 the tumor model EC50 (FIG. 4A). In contrast, when the talabostat is administered as part of the therapeutic conjugate, the MTD is 160 mg/m^2 in the mouse model and the EC50 for rats is greater than 500 mg/m^2 (FIG. 4B). Talabostat, as part of the therapeutic conjugate, can be administered to rats and mice at therapeutically effective doses.

rats = experiment: EC50 / maximum tolerated dose studies, rats; assay type: in vivo, rat
Description: as §1

G-CSF [1] = details: VbP alone, known; cited from earlier work
G-CSF [2] = experiment: G-CSF serum cytokine response in nontumor-bearing BALB/c mice (ELISA); assay type: in vivo; details: 200 μg/mouse intraperitoneal, six hours after dosing (FIG. 23)
Description: The FAP-activated prodrug G-CSF serum cytokine response in nontumor-bearing BALB/c mice was examined. Female BALB/c mice of 11-12 weeks of age were injected intraperitonially with vehicle (PBS), 42CQ-6501, or 42CQ-6501+MSA at 200 μg/mouse, in groups of 5 mice per treatment.
While cytokine recruitment is believed to play an important role in tumor immunity, its presence in the serum represents a systemic response, which can lead to unwanted adverse effects. […] 42CQ is an AFFIMER® polypeptide designed to bind to serum albumin (SEQ ID NO: 133). Consequently, the 42CQ-based conjugates (with 6501) were prepared with or without prebinding to MSA to determine whether there was an evident difference between the two formulations.
Six hours after dosing, blood was collected to measure G-CSF in the serum using a mouse G-CSF Quantikine ELISA kit.

Molecule	maximum tolerated dose (MTD) (mouse tumor model; mouse tumor model)	talabostat MTD relative to the tumor model EC50 (mouse tumor model; talabostat administered alone (FIG. 4A))	maximum tolerated dose (MTD) (rats)	serum G-CSF response (G-CSF [1])	serum concentration of G-CSF (G-CSF [2])
CC(C)[C@H](N)C(=O)N1CCC[C@H]1B(O)O [Talabostat, Val-boroPro]	about 3 mg/m^2	1/17	0.18 mg/m^2	large serum G-CSF response	
42CQ-6501: 42CQ, an AFFIMER polypeptide binding serum albumin (SEQ ID NO: 133), conjugated with 6501 (conjugate, conjugated with 6501) MIPRGLSEAKPATPEIQEIVDKVKPQLEEKTNETYGKLEAVQYKTQVLANFFQRRWPGSTNYYIKVRAGDNKYMHLKVFNGPWKFRNTDRGADRVLTGYQVDKNKDDELTGFAAAGGRAEQKLISEEDLGCAENLYFQGGAAGHHHHHH					significant increase
